The source of these data is patent publication US10420758B2, “Indolinyl-sulfonamide inhibitors of tankyrase and methods of use thereof” (The Board of Regents of the University of Texas System, priority 2015, dated 2019).

In one experiment the target is T1, PARP15 (Homo sapiens, UniProt Q460N3).
T1 sequence (Q460N3 1-678): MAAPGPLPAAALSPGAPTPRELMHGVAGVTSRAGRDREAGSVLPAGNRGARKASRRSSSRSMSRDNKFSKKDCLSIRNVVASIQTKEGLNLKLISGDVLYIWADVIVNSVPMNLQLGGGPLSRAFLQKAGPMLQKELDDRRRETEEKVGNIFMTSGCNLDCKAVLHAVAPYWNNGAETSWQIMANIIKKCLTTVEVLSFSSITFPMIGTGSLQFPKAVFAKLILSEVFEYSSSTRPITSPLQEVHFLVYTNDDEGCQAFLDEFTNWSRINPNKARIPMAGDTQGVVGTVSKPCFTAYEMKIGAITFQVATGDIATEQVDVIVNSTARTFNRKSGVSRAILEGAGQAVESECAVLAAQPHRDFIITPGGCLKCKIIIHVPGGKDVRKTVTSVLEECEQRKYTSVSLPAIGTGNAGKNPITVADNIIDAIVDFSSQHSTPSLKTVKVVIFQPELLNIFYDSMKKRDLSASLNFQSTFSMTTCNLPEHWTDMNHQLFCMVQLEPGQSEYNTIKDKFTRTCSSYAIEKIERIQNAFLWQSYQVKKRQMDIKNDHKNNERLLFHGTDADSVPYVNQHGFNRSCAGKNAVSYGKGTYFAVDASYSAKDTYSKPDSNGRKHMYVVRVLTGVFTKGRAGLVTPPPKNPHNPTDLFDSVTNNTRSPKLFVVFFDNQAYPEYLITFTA
As to the kind of experiment: PARP profiling, parsylation of immobilized histone. It is filed as biochemical. How it is done: (§1) Performed by BPS Bioscience Inc., San Diego by following the BPS PARP or TNKS assay kit protocols. The enzymatic reactions were conducted in duplicate at room temperature for 1 hr in a 96 well plate coated with histone substrate. […] of reaction buffer (Tris.HCl, pH 8.0) contains NAD^+, biotinylated NAD^+, activated DNA, recombinant PARP enzyme and 10 μM of the test compound. […] After enzymatic reactions, 50 μL of Streptavidin-horseradish peroxidase was added to each well and the plate was incubated at room temperature for an additional 30 min. 100 μL of developer reagents were added to wells and luminescence was measured using a BioTek Synergy™ 2 microplate reader.

In another experiment the target is T2, PARP3 (Homo sapiens, UniProt Q9Y6F1).
T2 sequence (Q9Y6F1 1-533): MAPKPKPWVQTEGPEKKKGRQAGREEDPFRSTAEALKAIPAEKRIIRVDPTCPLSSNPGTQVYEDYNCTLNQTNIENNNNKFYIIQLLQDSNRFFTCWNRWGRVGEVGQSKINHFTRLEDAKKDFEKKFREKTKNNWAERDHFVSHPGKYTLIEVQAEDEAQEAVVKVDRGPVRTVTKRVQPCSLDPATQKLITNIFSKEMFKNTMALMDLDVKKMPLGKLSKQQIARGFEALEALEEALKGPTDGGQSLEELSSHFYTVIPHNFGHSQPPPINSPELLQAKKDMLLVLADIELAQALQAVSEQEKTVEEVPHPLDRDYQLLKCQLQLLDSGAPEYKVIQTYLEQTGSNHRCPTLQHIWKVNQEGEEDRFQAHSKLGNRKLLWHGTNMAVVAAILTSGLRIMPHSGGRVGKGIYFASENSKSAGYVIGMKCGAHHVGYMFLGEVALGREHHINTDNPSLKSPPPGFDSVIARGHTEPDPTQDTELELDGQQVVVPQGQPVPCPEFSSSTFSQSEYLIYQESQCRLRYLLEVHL
As to the kind of experiment: PARP profiling, parsylation of immobilized histone. It is filed as biochemical. How it is done:
as §1

The target in the next experiment is PARP1 (Homo sapiens, UniProt P09874). As to the kind of experiment: PARP profiling, parsylation of immobilized histone. It is filed as biochemical. Conditions: IWR compounds 10 μM. How it is done: as §1
A further experiment addresses PARP11 (Homo sapiens, UniProt Q9NR21). As to the kind of experiment: PARP profiling, parsylation of immobilized histone. It is filed as biochemical. Conditions: IWR compounds 10 μM. How it is done:
as §1

The target of another experiment is PARP6 (Homo sapiens, UniProt Q2NL67). The experiment in a line: PARP profiling, parsylation of immobilized histone. It is filed as biochemical. The settings on record: IWR compounds 10 μM. How it is done:
as §1

For the next experiment, the system named is HeLa cells. As to the kind of experiment: Terminal restriction fragment (TRF) telomere length assay. It is filed as cell-based, human. Conditions: up to 40 population doublings, FIGS. 6A-B. How it is done:
FIGS. 6A-6C show Tnks inhibitors but not a Porcn inhibitor induce telomeric shortening. […] HeLa cells were incubated with IWR-1, IWR-8, or IWP-6 at various concentrations for the indicated number of population doublings (PD) and telomere length measured by terminal restriction fragment (TRF) analysis. Density of radioprobe hybridization relative to the vertical distance from the largest molecular weight marker was quantified using ImageJ and the point of highest density in each lane marked by a dark line. Position of control telomere restricted fragment signal is indicated with dotted line. Lanes with insufficient strength in labeling or that were disrupted with blemishes during experimental processing were not quantified. […] The same assay described in “A” was used to test the Porcn inhibitor IWP-2. (FIG. 6C) Model of Tnks-dependent regulation of Wnt/β-catenin transcriptional and telomere length maintenance in human cells. Excessive Terf1 binding to DNA in the absence of Tnks-mediated Terf1 parsylation results in replication fork stalling in telomeres (Munoz, et al., 2009; Ohki and Ishikawa, 2004) which then presumably results in telomere shortening. […]
1×10^6 cells were collected and washed with PBS. […] Gels were exposed to a Phosphorlmager screen overnight and analyzed using a Typhoon Phosphorlmager scanner system (Molecular Dynamics). […]

The test system of experiment [1] is panel of recombinant PARP proteins. As to the kind of experiment: Overall specificity in panel of recombinant PARP proteins. It is filed as biochemical. The settings on record: 10 μM, panel covers 70% of the protein family. How it is done: as §1
The higher level of conservation between the NI-binding pocket in PARPs as compared to the AD-binding pocket likely imposes greater challenges to achieving specificity with NI-binding pocket inhibitors (Wahlberg, et al., 2012). […] At the same time, the discovery of structurally distinct chemicals both capable of binding the AD-binding pocket in a similar fashion (IWR-1 and IWR-8) afforded an opportunity to evaluate the strength of this hypothesis.

For orientation: inhibition means the percentage by which the read-out fell short of the control. What is called % inhibition is the drop in the measured response relative to a control, in per cent.

The structures appear in SMILES notation.

Chain of PARP11 (Q9NR21 whole entry): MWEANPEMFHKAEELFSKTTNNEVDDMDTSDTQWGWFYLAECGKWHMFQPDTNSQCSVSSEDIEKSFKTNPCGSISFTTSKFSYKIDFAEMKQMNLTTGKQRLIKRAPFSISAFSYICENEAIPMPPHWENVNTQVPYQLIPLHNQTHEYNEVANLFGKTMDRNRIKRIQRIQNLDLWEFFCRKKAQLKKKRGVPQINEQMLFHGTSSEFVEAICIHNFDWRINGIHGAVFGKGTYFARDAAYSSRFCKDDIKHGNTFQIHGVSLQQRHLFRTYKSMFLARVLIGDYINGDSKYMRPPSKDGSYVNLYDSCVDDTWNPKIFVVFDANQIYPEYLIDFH
Chain of PARP1 (P09874 whole entry): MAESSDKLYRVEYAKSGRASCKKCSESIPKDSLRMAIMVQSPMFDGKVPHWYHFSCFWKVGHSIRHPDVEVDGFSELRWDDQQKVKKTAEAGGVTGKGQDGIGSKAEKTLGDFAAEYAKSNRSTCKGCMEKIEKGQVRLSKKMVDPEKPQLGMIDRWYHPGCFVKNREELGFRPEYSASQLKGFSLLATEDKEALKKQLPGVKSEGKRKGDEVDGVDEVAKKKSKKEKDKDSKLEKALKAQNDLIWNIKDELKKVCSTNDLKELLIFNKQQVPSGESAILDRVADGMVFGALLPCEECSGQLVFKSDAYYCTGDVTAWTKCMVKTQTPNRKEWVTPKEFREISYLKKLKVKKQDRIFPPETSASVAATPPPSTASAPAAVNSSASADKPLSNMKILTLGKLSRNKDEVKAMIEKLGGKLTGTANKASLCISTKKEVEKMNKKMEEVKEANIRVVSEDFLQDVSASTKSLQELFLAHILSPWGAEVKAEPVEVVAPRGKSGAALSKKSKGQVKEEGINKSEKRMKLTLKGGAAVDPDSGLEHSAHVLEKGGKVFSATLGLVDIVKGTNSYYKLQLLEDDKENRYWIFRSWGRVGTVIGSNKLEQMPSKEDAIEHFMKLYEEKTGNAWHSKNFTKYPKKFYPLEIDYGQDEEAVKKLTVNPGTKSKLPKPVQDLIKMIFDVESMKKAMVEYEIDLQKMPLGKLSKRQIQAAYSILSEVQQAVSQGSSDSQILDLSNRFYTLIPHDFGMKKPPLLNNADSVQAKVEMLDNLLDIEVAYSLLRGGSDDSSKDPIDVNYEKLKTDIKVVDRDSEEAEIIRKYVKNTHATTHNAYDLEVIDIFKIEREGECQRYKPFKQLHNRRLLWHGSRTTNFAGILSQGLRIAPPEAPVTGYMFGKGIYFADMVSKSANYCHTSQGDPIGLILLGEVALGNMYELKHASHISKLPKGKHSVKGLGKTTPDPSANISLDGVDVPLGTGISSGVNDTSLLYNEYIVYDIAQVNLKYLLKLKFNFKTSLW
Chain of PARP6 (Q2NL67 whole entry): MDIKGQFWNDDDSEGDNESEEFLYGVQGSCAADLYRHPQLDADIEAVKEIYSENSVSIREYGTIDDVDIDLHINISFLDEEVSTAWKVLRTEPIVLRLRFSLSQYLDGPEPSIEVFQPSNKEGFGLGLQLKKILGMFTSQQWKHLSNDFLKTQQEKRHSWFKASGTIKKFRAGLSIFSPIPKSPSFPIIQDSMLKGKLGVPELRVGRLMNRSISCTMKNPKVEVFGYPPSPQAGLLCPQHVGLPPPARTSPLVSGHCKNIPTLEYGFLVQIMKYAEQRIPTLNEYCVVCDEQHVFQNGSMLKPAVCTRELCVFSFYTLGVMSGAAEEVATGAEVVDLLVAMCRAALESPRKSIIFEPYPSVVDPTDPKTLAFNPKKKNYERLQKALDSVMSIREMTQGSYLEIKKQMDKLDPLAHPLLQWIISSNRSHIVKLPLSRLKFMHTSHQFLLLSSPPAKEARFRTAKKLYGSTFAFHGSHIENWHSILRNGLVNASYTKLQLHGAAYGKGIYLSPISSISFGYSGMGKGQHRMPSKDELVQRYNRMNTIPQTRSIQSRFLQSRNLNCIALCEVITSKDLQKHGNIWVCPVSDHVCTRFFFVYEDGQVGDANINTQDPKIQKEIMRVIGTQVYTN

Consider `O=C(c1cc(Cc2n[nH]c(=O)c3ccccc23)ccc1F)N1CCN(C(=O)C2CC2)CC1` [Olaparib], for which the inhibition at 0.02 µM on PARP15 turned out to be 82%; on PARP3 it was 100%.

For the compound `O=C(Nc1cccc2cccnc12)c1ccc(N2C(=O)[C@@H]3[C@H](C2=O)[C@@H]2C=C[C@H]3C2)cc1` [IWR-1], the “% inhibition” value at PARP1 came to 0%; on PARP11, 2%; on PARP15 (IWR compounds 10 μM), 0%; at PARP3 (IWR compounds 10 μM), 6%; at PARP6 it was 0%. The telomere length result in the experiment on HeLa cells is “induced shortened telomere length in a dose-dependent manner”. The “specificity/selectivity across PARP panel” value in experiment [1] is “highly specific”.

For `CCN(C(=O)C1CCN(S(=O)(=O)c2cc3c(cc2Br)CCN3C(C)=O)CC1)c1cccc(C)c1` [IWR-8], the inhibition at 10 µM on PARP1 was 0%; at PARP11 it was 12%; at PARP15 (IWR compounds 10 μM) it was 0%; at PARP3 it was 11%; at PARP6, 0%. In the experiment with HeLa cells, the telomere length entry is recorded as “induced shortened telomere length in a dose-dependent manner”. Besides, the “specificity/selectivity across PARP panel” value in experiment [1] is listed as “highly specific”.
